Measurements taken from ChEMBL document CHEMBL1201862, “PubChem BioAssay data set” (2004).
Activity calls are given as the source filed them.

Legend:
[1] = Luminescence-based cell-based high throughput dose response assay to identify activators of the DAF-12 from the parasite S. stercoralis (ssDAF-12).; format: functional
[2] = molecular target: T1, Oxysterols receptor LXR-beta (Homo sapiens, UniProt P55055); test: LXR agonists, Gal4 luciferase reporter, dose response, counter-screen for ssDAF-12 agonist project, cell-based, luminescence, HEK293, S. stercoralis campaign (AID 720737); format: functional; details: read-out: IC50 (the source's name)
T1 sequence (P55055 whole entry): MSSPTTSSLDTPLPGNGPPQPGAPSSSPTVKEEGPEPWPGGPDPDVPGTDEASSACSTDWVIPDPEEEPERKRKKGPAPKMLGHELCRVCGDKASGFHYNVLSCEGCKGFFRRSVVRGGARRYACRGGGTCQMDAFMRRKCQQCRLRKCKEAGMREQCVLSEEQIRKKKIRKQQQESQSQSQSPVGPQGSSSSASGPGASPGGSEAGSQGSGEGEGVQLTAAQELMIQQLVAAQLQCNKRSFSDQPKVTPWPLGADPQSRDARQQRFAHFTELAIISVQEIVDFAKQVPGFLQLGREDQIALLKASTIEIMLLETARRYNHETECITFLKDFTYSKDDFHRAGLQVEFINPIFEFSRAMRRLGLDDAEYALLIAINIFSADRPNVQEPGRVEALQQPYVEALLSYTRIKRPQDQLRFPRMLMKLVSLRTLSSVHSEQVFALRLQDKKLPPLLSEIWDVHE

[3] = ADAM10 inhibitors, peptide cleavage, dose response, biochemical, QFRET (AID 743254);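 further: ADAM10 enzyme with the DM2 quenched FRET peptide as substrate; EDANS fluorescence gain as the protease cuts the substrate; inhibitor potency against ADAM10 proteolytic activity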
[4] = molecular target: Disintegrin and metalloproteinase domain-containing protein 17 (Homo sapiens, UniProt P78536); test: ADAM17 protease inhibitors, dose response, counter-screen for ADAM10 exosite inhibitor project, biochemical, quenched FRET substrate (AID 743253)
Vero = test: host cell cytotoxicity of antiviral hits, dose response, cytotoxicity control for West Nile virus antiviral project, secondary assay (AID 1650); format: functional; details: Chlorocebus sabaeus
[5] = molecular target: T2, Mannose-6-phosphate isomerase (Homo sapiens, UniProt P34949); test: human PMI inhibitors, high substrate, primary screen, biochemical, fluorescence intensity, high mannose 6-phosphate (AID 1220)
T2 sequence (P34949 whole entry): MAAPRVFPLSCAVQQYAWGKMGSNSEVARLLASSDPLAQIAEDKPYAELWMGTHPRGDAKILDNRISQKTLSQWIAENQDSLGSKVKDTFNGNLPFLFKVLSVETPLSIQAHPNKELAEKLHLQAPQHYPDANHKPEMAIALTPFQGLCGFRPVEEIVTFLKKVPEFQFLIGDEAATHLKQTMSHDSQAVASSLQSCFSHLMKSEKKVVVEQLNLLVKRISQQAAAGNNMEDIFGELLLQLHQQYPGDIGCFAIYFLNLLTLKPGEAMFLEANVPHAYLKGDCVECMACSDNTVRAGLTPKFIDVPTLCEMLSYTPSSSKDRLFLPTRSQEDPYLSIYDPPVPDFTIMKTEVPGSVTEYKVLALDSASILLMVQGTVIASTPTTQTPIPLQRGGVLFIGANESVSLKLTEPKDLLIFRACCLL

[6] = molecular target: RNA-editing ligase 1, mitochondrial (Trypanosoma brucei brucei, UniProt P86926); test: TbREL1 ligase inhibitors, dose response, biochemical, fluorescence, Trypanosoma brucei (AID 1117295); format: functional
[7] = molecular target: NAD-dependent protein deacylase sirtuin-5, mitochondrial (Homo sapiens, UniProt Q9NXA8); test: SIRT5 desuccinylase inhibitors, dose response, biochemical, fluorescence imaging, cherry-pick, set 5 (AID 720591);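 further: desuccinylation of succinyl peptide AMC substrate read as fluorescence after trypsin release; potency of inhibitors that lower fluorescence and may act on trypsin instead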
[8] = molecular target: E3 ubiquitin-protein ligase Mdm2 (Homo sapiens, UniProt Q00987); test: enhancers of MDM2-luciferase reporter signal, concentration-effect titration, project on inhibitors of MDM2 ubiquitin ligase, cellular assay, luminescent readout, 384-well plate format (AID 1394); format: functional;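 further: MDM2 E3 inhibitors raise luminescence so EC50 is for signal enhancement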
Fatty acid synthase [9] = molecular target: T3, Fatty acid synthase (Homo sapiens, UniProt P49327); test: FAS thioesterase domain inhibitors, dose response, biochemical, endpoint fluorescence intensity, uHTS hits (AID 624327); format: functional;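 further: fluorescence from hydrolysis of an O-methyl fluorescein acyl ester substrate by the enzyme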
Fatty acid synthase [10] = molecular target: T3, Fatty acid synthase; test: FAS thioesterase domain inhibitors, dose response, biochemical, kinetic fluorescence intensity (AID 624326); format: functional;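 further: rate of fluorescence rise from hydrolysis of a fluorogenic O-methyl fluorescein ester substrate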
[11] = inhibitors of Vif binding to APOBEC3G peptide, primary screen, biochemical, TR-FRET, GST-Vif 1-94, biotin-A3G peptide, dose response retest (AID 1117319); format: functional;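 further: TR-FRET signal of purified GST-Vif binding a biotinylated A3G peptide; inhibitors lower the FRET signal by blocking Vif and A3G binding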
[12] = molecular target: T4, Carboxy-terminal domain RNA polymerase II polypeptide A small phosphatase 1 (Homo sapiens, UniProt Q9GZU7); test: inhibitors of CTDSP1, concentration-response testing, biochemical assay, absorbance-based, actives from ultra-high-throughput screening (AID 540297); format: functional
T4 sequence (Q9GZU7 whole entry): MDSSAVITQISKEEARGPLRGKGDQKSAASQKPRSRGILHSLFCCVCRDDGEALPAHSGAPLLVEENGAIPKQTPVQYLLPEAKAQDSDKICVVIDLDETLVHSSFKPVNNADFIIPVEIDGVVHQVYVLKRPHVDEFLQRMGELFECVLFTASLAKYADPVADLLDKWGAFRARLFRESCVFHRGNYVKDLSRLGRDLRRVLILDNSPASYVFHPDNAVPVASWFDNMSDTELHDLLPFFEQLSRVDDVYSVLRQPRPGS

[13] = molecular target: T5, Low molecular weight phosphotyrosine protein phosphatase (Homo sapiens, UniProt P24666); format: functional; details: read-out: IC50_Mean;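 further: Dose-response confirmation assay measuring inhibition of LMPTP enzyme activity by fluorescence intensity read-out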
T5 sequence (P24666 whole entry): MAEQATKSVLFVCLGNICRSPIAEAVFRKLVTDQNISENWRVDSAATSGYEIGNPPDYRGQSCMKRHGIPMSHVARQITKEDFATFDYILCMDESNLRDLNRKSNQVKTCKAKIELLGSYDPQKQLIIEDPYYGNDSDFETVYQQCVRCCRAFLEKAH

[14] = P. falciparum late gametocyte killing, dose response, luminescence (AID 1117278); format: functional, cell-based;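 further: gametocytes exposed to compound for 24 hours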
[15] = Jurkat T cell cytotoxicity, dose response, cytotoxicity control for P. falciparum gametocyte viability project, luminescence (AID 1117277); format: functional, cell-based;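 further: potency reflects loss of cellular ATP meaning fewer viable cells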
[16] = molecular target: Diphosphomevalonate decarboxylase (Streptococcus pneumoniae serotype 2 (strain D39 / NCTC 7466), UniProt Q9FD53); test: S. pneumoniae DPM-DC inhibition retest, confirmation, biochemical, cuvette format, coupled NADH fluorescence (AID 1028); format: functional
[17] = Luminescence Cell-Based Dose Response to Identify Activators of 5'UTR Stem-Loop Driven Prion Protein mRNA Translation in H4-C Neuroglioblastoma Cells. [Related pubchem assays: 1829 (Project Summary), 1814 (Primary HTS)]; format: functional
[18] = Luminescence Cell-Based Dose Response HTS to Identify Activators of Luciferase Translation or Activity in H4 […] Cells. [Related pubchem assays: 1829 (Project Summary), 1814 (Primary HTS)]; format: functional
H4 = test: Luminescence Cell-Based Dose Response HTS to Identify Activators of 5'UTR Stem-Loop Driven Prion Protein mRNA Translation in H4 Neuroglioblastoma Cells. [Related pubchem assays: 1829 (Project Summary), 1814 (Primary HTS)]; format: functional; details: Homo sapiens
[19] = Luminescence Cell-Based Dose Response to Identify Activators of Luciferase Translation or Activity in H4-C Neuroglioblastoma Cells. [Related pubchem assays: 1829 (Project Summary), 1814 (Primary HTS)]; format: functional
[20] = Luminescence Cell-Based Dose Confirmation to Identify Activators of 5'UTR Stem-Loop Driven Alpha-Synuclein mRNA Translation in H4 Neuroglioblastoma Cells. [Related pubchem assays: 1829 (Project Summary), 1814 (Primary HTS)]; format: functional
Paired box protein Pax-8 = Paired box protein Pax-8 (Homo sapiens, UniProt Q06710); test: inhibitors of PAX8-driven TPO luciferase reporter, dose response, RMG-I cells, cherry-pick (AID 687027); format: functional, cell-based;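 further: luciferase reporter driven by Pax8 target thyroperoxidase promoter measured by SteadyGlo luminescence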
[21] = A2780 ovarian cancer cell cytotoxicity, dose response, cytotoxicity control, plate reader, dry powder samples (AID 743046); format: functional, cell-based
[22] = NIH:OVCAR-3 ovarian cancer cell cytotoxicity, dose response, PAX8 inhibitor project, plate reader, dry powder samples (AID 743044); format: functional, cell-based
[23] = P. falciparum Dd2 growth inhibitors, dose response, SYBR Green, cherry-picked samples (AID 1159567); format: functional, cell-based
[24] = HepG2 cell cytotoxicity, dose response, cytotoxicity control, cherry-picked samples (AID 1159577); format: functional, cell-based
[25] = Concentration-dependent survival of SW480 colon cancer line, luminescence detection with CellTiter-Glo, half-maximal inhibitory concentration (AID 1117338); format: functional
[26] = RKO cell viability reduction, dose response, CellTiter-Glo luminescence (AID 1117322); format: functional
[27] = cytotoxicity toward HCT116 cells – cell-based, CellTiter-Glo luminescence, IC50, dose response (AID 1117332); format: functional; details: HCT-116
[28] = SNU-C1 cell viability reduction, dose response, CellTiter-Glo luminescence (AID 1117323); format: functional, cell-based
[29] = cytotoxicity toward Colo320 cells – cell-based, CellTiter-Glo luminescence, IC50, dose response (AID 1117334); format: functional; details: COLO 320
[30] = cytotoxicity toward HT-29 cells – cell-based, CellTiter-Glo luminescence, IC50, dose response (AID 1117330); format: functional
[31] = CellTiter-Glo luminescent dose response of DLD-1 viability loss (AID 1117352); format: functional
[32] = HCT116 cell viability decrease, GSK3B pretreatment – CellTiter-Glo, IC50, dose response (AID 1117339); format: functional; details: HCT-116

Chain of Disintegrin and metalloproteinase domain-containing protein 17 (P78536 whole entry, the tested form may be a part): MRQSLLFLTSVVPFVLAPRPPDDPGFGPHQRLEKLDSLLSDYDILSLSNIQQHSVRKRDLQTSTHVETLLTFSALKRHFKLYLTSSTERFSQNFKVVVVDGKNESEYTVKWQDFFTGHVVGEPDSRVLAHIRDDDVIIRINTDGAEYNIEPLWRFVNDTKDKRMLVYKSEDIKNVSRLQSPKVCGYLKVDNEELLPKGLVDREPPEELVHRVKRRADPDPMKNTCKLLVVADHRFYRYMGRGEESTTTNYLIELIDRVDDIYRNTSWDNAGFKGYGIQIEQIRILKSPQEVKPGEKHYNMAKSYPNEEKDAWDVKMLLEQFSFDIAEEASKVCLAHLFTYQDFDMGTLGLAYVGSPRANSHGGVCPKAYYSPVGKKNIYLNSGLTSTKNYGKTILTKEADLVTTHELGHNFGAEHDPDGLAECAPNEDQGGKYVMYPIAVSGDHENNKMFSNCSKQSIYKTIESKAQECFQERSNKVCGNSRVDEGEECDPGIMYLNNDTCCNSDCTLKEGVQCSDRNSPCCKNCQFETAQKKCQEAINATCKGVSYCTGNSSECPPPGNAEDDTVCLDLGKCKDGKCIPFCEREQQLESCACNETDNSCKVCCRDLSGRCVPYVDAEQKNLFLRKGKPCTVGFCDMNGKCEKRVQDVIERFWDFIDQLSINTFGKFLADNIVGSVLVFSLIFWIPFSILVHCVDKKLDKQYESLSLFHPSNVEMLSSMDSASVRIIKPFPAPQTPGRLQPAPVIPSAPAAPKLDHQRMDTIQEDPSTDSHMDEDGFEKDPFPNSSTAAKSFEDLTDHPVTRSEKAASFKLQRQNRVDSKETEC
Chain of NAD-dependent protein deacylase sirtuin-5, mitochondrial (Q9NXA8 whole entry): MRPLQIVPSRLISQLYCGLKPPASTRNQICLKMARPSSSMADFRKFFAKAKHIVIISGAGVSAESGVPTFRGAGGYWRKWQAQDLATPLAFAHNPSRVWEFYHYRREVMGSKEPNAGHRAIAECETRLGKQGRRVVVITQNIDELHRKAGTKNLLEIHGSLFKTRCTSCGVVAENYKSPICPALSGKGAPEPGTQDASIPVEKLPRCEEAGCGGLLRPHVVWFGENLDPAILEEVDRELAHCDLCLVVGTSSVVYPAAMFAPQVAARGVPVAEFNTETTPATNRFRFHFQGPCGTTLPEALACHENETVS
Chain of Diphosphomevalonate decarboxylase (Q9FD53 whole entry): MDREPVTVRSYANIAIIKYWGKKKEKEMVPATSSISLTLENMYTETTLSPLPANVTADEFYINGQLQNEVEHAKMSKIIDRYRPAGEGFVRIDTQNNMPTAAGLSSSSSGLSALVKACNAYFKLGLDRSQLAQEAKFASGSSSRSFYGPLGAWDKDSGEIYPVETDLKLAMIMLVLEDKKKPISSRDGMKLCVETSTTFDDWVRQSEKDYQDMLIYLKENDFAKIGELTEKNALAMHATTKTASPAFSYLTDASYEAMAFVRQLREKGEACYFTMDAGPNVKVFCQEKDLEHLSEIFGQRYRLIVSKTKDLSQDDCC
Chain of E3 ubiquitin-protein ligase Mdm2 (Q00987 whole entry, the tested form may be a part): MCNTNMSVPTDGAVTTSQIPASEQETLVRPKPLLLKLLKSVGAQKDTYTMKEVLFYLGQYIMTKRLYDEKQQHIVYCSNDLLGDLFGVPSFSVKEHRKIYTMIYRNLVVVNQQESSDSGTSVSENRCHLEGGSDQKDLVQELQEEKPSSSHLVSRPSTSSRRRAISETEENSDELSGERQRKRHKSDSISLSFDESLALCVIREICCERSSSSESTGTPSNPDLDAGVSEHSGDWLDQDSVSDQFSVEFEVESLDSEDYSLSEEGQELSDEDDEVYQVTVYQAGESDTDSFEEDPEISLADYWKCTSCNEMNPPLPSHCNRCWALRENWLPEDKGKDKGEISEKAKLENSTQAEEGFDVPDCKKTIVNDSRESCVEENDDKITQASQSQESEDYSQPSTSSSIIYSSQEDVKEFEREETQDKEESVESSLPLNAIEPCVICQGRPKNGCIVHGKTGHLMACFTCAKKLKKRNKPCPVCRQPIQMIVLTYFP
T3 sequence (P49327 whole entry, the tested form may be a part): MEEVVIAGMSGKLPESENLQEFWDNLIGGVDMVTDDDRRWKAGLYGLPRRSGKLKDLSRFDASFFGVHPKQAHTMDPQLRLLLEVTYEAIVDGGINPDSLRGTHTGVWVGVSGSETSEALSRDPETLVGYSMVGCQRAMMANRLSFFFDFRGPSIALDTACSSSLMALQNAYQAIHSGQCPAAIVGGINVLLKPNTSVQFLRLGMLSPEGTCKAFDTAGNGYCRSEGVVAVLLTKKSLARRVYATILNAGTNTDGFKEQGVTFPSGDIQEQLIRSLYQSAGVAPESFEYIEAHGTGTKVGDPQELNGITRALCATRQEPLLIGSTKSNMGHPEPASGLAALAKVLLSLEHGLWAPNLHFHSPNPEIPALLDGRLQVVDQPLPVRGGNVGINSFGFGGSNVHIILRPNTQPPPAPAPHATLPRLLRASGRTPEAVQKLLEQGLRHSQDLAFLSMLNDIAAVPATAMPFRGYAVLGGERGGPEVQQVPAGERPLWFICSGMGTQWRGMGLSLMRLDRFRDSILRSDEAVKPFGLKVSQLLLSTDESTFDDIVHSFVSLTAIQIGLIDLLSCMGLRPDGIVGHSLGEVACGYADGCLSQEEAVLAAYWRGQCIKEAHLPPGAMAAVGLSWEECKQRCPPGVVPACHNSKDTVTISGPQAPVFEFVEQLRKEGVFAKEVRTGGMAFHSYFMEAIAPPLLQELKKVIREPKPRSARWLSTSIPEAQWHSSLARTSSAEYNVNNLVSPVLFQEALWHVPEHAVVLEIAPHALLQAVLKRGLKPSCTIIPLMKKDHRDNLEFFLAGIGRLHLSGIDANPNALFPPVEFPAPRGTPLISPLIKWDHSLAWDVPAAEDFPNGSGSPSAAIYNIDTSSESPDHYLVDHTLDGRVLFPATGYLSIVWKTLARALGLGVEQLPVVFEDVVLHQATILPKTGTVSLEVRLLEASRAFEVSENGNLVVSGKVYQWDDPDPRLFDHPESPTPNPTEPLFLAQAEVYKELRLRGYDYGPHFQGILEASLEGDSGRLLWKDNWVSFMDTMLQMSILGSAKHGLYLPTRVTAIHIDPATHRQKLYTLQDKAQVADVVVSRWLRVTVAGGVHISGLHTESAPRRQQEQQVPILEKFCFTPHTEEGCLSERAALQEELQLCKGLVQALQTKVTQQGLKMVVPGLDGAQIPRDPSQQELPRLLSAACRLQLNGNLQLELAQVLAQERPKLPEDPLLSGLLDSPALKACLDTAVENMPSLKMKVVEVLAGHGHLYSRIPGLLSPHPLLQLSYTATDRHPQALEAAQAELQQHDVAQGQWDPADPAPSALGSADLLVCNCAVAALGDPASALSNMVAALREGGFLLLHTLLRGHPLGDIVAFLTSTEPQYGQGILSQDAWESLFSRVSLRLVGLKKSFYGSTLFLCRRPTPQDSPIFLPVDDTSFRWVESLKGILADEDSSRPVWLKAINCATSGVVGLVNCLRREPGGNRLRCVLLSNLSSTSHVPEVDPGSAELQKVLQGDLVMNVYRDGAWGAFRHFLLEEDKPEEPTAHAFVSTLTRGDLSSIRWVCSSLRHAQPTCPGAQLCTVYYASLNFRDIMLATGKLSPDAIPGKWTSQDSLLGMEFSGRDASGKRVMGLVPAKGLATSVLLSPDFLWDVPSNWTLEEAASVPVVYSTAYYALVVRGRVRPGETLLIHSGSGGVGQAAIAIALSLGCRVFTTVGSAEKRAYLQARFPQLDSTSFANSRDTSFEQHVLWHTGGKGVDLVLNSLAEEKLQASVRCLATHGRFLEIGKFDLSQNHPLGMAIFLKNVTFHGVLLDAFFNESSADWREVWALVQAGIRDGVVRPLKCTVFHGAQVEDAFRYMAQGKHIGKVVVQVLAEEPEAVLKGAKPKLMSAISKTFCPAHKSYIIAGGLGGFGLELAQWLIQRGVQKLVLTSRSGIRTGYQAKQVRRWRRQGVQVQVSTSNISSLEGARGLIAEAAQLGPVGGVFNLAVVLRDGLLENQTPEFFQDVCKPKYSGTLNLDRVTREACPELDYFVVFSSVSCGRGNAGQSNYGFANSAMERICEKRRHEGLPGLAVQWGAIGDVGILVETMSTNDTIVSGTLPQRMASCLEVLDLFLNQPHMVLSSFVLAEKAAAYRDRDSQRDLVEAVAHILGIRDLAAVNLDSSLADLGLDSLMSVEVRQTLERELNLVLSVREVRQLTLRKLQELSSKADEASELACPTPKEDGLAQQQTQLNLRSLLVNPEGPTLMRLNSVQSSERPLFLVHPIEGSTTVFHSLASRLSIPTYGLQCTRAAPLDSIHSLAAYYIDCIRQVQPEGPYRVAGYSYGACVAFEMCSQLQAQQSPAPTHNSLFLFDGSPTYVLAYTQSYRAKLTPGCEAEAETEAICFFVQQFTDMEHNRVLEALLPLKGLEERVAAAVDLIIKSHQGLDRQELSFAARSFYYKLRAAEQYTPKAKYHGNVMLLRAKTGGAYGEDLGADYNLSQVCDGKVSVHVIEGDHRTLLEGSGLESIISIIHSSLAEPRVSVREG
Chain of RNA-editing ligase 1, mitochondrial (P86926 whole entry): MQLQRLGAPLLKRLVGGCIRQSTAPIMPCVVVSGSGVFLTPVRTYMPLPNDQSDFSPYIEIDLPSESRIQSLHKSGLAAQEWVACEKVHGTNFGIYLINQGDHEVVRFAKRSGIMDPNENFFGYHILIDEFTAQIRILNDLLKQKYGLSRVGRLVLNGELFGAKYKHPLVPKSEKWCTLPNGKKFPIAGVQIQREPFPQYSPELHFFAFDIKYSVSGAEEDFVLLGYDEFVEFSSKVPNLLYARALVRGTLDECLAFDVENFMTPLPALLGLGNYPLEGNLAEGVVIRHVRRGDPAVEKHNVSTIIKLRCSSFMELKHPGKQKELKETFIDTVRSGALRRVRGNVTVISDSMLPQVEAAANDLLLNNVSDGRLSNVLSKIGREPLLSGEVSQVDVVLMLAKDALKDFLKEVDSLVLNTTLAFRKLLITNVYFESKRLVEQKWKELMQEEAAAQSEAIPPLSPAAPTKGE

CNc1cncc(-c2ccc(OC)c(OC)c2)n1
IC50 [1]: > 67.6 µM (inactive) | EC50 [2]: > 67.6 µM (inactive)

Cc1ccc(C(=O)Nc2ccccc2C(=O)NCc2ccco2)cc1S(=O)(=O)N1CCCCC1
IC50 [3]: > 69.5 µM (inactive) | IC50 [4]: > 69.5 µM (inactive)

Cc1ccccc1NC(=O)c1cc(C(=O)c2cc(Cl)ccc2O)cn(-c2ccccc2C)c1=O
CC50 (Vero): 64.8 µM (active)

On1c2c(c3c4nonc4ccc31)CCCC2
IC50 [5]: > 50 µM (not active)

COCCCNC(=O)C1CCN(S(=O)(=O)c2ccc3[nH]c(=O)oc3c2)CC1
IC50 [6]: 42.4 µM (inactive)

O=C(NCCN1CCCC(O)C1)c1cc(COc2ccc(F)cc2Cl)on1 (stereo not given)
AC50 [7]: > 30 µM (inactive)

COc1ccccc1-c1cc(SC)c(C#N)c(=O)o1
EC50 [8]: 11.1 µM (active) | IC50 (Fatty acid synthase [9]): 15.3 µM (active) | IC50 (Fatty acid synthase [10]): 10.9 µM (active)

CC(=O)Cc1nsc(Nc2ccc3c(c2)OCCO3)n1
IC50 [11]: > 100 µM (active)

CCSc1nnc(NC(=O)CSc2sc3c(O)cc(=O)[nH]c3c2C#N)s1
IC50 [12]: 3.21 µM (active) | IC50 [13]: 49.5 µM (inactive) | AC50 [7]: > 30 µM (inactive)

Cc1cc(OC(=O)c2ccccc2)c([N+](=O)[O-])c(O)n1
EC50 [8]: 0.01 µM (not active)

CCCn1c(SCC(=O)c2cc(OC)ccc2OC)nnc1-c1ccco1
IC50 [14]: > 109 µM (inactive) | IC50 [15]: > 83.3 µM (inactive)

CCN(c1ccc(C)c(C)c1)S(=O)(=O)c1ccc2c(c1)CCN2C(=O)CCC(=O)O
IC50 [14]: > 109 µM (inactive) | IC50 [15]: > 83.3 µM (inactive)

O=C(CSc1nnc(Cc2cccs2)n1-c1ccc(Cl)cc1)Nc1ccc(OCc2ccccc2)cc1
IC50 [3]: > 69.5 µM (inactive) | IC50 [4]: > 69.5 µM (inactive)

O=C(NC1CC1)c1cccc(-n2sc3ccccc3c2=O)c1
IC50 [16]: 20.4 µM (active)

Cc1ccc(-c2cn3cccc(C)c3n2)cc1
IC50 [1]: > 67.5 µM (inactive) | EC50 [2]: > 67.5 µM (inactive)

CCN(CC)CCN/C=C1\C(=O)CNC1=O
IC50 [11]: > 100 µM (active)

CN1CCN(C(=O)c2ccc(-n3sc4ccccc4c3=O)cc2)CC1
IC50 [16]: 25.8 µM (active)

Cc1nn(-c2nc3ccccc3s2)c(N)c1-c1ccccc1
EC50 [17]: 0.346 µM (active) | EC50 [18]: < 0.1 µM (active) | EC50 (H4): > 120 µM (not active) | EC50 [19]: 1.66 µM (active) | EC50 [20]: 0.277 µM (active)

Cc1ccc(S(=O)(=O)Nc2ccc3c(c2)C(=O)N([C@H](C)CO)C[C@@H](C)[C@@H](CN(C)Cc2ccc4c(c2)OCO4)OCCCC[C@@H](C)O3)cc1
AC50 (Paired box protein Pax-8): 21 µM (active) | AC50 [21]: < 0.26 µM (active) | AC50 [22]: 29.1 µM (active)

COc1ccc(C#Cc2ccc([C@@H]3[C@H](CO)N4CCCCN(C(=O)Cc5ccccc5)C[C@@H]34)cc2)cc1
AC50 [23]: 1.42 µM (active) | AC50 [24]: 7.73 µM (active)

CC(C)=CCCC(C)=CCCC(C)=CCCC=C(C)CCC=C(C)CCC=C(C)C
IC50 [25]: > 20 µM (inactive) | IC50 [26]: > 20 µM (inactive) | IC50 [27]: > 20 µM (inactive) | IC50 [28]: > 20 µM (inactive) | IC50 [29]: > 20 µM (inactive) | IC50 [30]: > 20 µM (inactive) | IC50 [31]: > 20 µM (inactive) | IC50 [32]: > 20 µM (inactive)
